# Assay results from patent publication US5424308A, “Condensed pyrazole 3-oxo-propanenitrile derivatives” (Farmitalia Carlo Erba S.r.l., priority 1988, dated 1995).
# How the values were obtained:
# TU-5 tumor cells = experiment: Macrophage cytotoxic activity towards TU-5 tumor cells (peritoneal macrophages of i.p. treated mice, MTT); assay type: cell-based; conditions: Effector:Target 5:1; 10 mg/kg/i.p.; 7 days before cell collection; 48 hours incubation
# Method: The experimental procedure to evaluate this activity is as follows: groups of 4 mice are treated i.p. with the tested compounds and then, seven days later, peritoneal cells are collected and plated for 2 hours at 37° C. After this period the walls are washed to eliminate the non adherent cells, tumor target cells are then added and the incubation prolonged for 48 hours. At the end of this period the target cells viability is evaluated by the MTT colorimetric method (Abstracts of VIII European Immunology Meeting, Zagreb, 1987, pag 94 n°2105) based on the optical density (OD) evaluation at 570 nm.
# Percent specific cytotoxicity (%C) is calculated as % inhibition of TU-5 tumor cells (Immunology, 1984, 166, 251) growth using the following formula: [formula]
# The following Table I summarizes the immunostimulating activity data of some representative compounds of the invention, obtained according to hereabove experimental procedure, towards TU-5 tumor cells.
# Pseudomonas aeruginosa = Pseudomonas aeruginosa infection in Cyclophosphamide immunosuppressed mice; assay type: in vivo; conditions: for % survival: 10 mg/kg/i.p., 8 LD50 intravenously, 10 days after bacterial challenge; for effectiveness against Pseudomonas aeruginosa infection: Cyclophosphamide immunosuppressed mice, in words
# Method: The experimental procedure to evaluate this activity is as follows: mice are immunosuppressed 4 days before the bacterial challenge by a single dose of 200 mg/kg of Cyclophosphamide given intraperitoneally. Tested compounds are administered i.p. on days +1 and +3 relative to Cyclophosphamide administration. Clinically isolated Pseudomonas aeruginosa is administered intravenously in amount of 8 LD50. Host resistance to infection is estimated by the number of mice surviving 10 days after the bacterial challenge.
Structure (SMILES),Macrophage cytotoxic activity (% inhibition of TU-5 growth) (TU-5 tumor cells) [%],% survival (Pseudomonas aeruginosa) [%],effectiveness against Pseudomonas aeruginosa infection (Pseudomonas aeruginosa)
"N#CC(C(=O)Nc1ccccc1)C(=O)c1nn(-c2ccccc2)c2c1Cc1ccccc1-2 (stereo not drawn) [FCE 25276, 2-cyano-3-(1,4-dihydro-1-phenyl-indeno[1,2-c]pyrazol-3-yl) -3-oxo-N-phenyl-propanamide]",93,90,strongly effective
"N#CC(C(=O)Nc1ccc(F)cc1)C(=O)c1nn(-c2ccccc2)c2c1Cc1ccccc1-2 (stereo not drawn) [FCE 25648, 2-cyano-N-(4-fluoro-phenyl)-3-(1,4-dihydro-1-phenyl-indeno[1,2-c]pyrazol-3-yl)-3-oxo-propanamide]",77,90,strongly effective
"N#CC(C(=O)Nc1ccccc1)C(=O)c1nn(-c2ccccc2)c2c1sc1ccccc12 (stereo not drawn) [FCE 26047, 2-cyano-3-oxo-3-(1-phenyl-1H-benzothieno[3,2-c]pyrazol-3-yl)-N-phenyl-propanamide]",82,70,strongly effective
"N#CC(C(=O)Nc1cccc(Cl)c1)C(=O)c1nn(-c2ccccc2)c2c1Cc1ccccc1-2 (stereo not drawn) [FCE 25651, N-(3-chloro-phenyl)-2-cyano-3-(1,4-dihydro-1-phenyl-indeno[1,2-c]pyrazol-3-yl)-3-oxo-propanamide]",79,90,strongly effective
